From patent US20250109139A1, “TRICYCLIC COMPOUND, AND PREPARATION METHOD THEREFOR AND USE THEREOF” (SHANGHAITECH UNIVERSITY, priority 2022, published 2025) come the findings set out here.

SMILES strings stand for the structures. pEC50, pKi: −log10 of the molar value. Where two headings read alike, the source gives them in different places.

The target of test [1] is T1, dopamine D2 receptors (Homo sapiens (Human), UniProt P14416). Kind of test: Dopamine D2 receptor Gαi1 BRET (G protein trimer dissociation). It is filed as cell-based. As to conditions: for EC50: read-out: Gαi1 BRET pEC50 ± SEM (converted); for Emax: relative to endogenous ligand dopamine, read-out: Gαi1 BRET Emax % ± SEM; for pEC50: unit printed only in Cariprazine cell, read-out: Gαi1 BRET EC50. How it is done:
(§1) To examine the downstream G-protein signaling pathway mediated by dopamine D2 receptors, on the first day, a 6 cm culture dish was used for transfection with 1 μg of dopamine D2 receptors, 1 μg of Gαi1 containing C-terminal seaweed luciferase (Gαi1-Rluc), 1 μg of Gβ3, 1 μg of Gγ9 containing C-terminal green fluorescent protein (Gγ9-GFP) mixed with 16 μL of PEI. At the same time, in order to examine the downstream β-arrestin2 signaling pathway mediated by dopamine D2 receptors, on the first day, a 6 cm culture dish was used for transfection with […] of dopamine D2 receptors containing C-terminal seaweed luciferase (D2-Rluc), […] of G protein-coupled receptor kinase 2 (GRK2), […] of β-arrestin2 containing N-terminal green fluorescent protein (GFP2-ARRB2) mixed with 14 μL of PEI. The next day, the confluent cells of a 6 cm culture dish were digested and reseeded into a 96-well plate with 100 μL of culture medium added to each well. On the third day, the drugs were added for test. The 96-well plate was taken out from the cell incubator to decant the culture medium, 40 μL of the substrate coelenterazine 400a (final concentration of 5 μM) was added to each well, and then 20 μL of different drugs were added sequentially from left to right to ensure that the final concentration of the drug decreased gradually from bottom to top, with two replicates per treatment. Finally, the prepared samples were loaded on machine for test. The machine readout value reflected the recruitment of β-arrestin2 to the membrane or the dissociation of G protein trimer. The former indicated the degree of activation of the β-arrestin2 signaling pathway downstream of the dopamine D2 receptors, and the latter indicated the degree of activation of the G protein signaling pathway downstream of the dopamine D2 receptors.
(Bioluminescence resonance energy transfer reports proximity on the nanometre scale.)

The target in test [2] is T1, dopamine D2 receptors. Kind of test: Dopamine D2 receptor β-arrestin2 BRET (recruitment). It is filed as cell-based. As to conditions: for Emax: relative to endogenous ligand dopamine, read-out: β-arrestin2 BRET Emax % ± SEM; for pEC50: unit printed only in Cariprazine cell, read-out: β-arrestin2 BRET EC50; for EC50: read-out: β-arrestin2 BRET pEC50 ± SEM (converted). How it is done: as §1

Test [3] deals with T1, dopamine D2 receptors. As to the kind of experiment: Dopamine D2 receptor radioligand competition binding assay ([3H]-Methylspiperone). As to conditions: [3H]-Methylspiperone 0.3 to 0.5 nM, 293T membranes; for pKi: read-out: Affinity Ki; for Ki: read-out: Affinity pKi ± SEM (converted). How it is done:
The affinity of the compounds of the present disclosure for dopamine D2 receptors was determined by a radioligand competition binding assay.
In the first step, a cell membrane component containing specific dopamine D2 receptors was prepared. A 10 cm culture dish was used for transfection with […] of dopamine D2 receptors and 40 μL of polyethylenimine (PEI hereafter). […] A vacuum pump was used to suck off the culture medium, 3 mL of lysis buffer was added to each culture dish, and the cells were placed in a 4° C. cold room for 10 minutes. After the cells were detached, the cells were transferred to a 15 mL centrifuge tube and centrifuged at 1500 rpm for 5 minutes at 4° C., and the supernatant was discarded. The cell pellet was transferred to a tissue homogenizer, and 3 mL of lysis buffer was added and fully ground until the cells were broken. Then, cell suspension was equally aliquoted into several EP tubes, centrifuged at 12000 rpm for 5 minutes at 4° C., and the supernatant was discarded. The precipitate was the cell membrane component containing the dopamine D2 receptors.
First, a standard binding buffer was added to the cell membrane component containing the dopamine D2 receptors, and the cell membrane was disrupted and resuspended with an electric tissue homogenizer. 30 μL of membrane protein suspension was added to each well of a 96-well plate. Then, 30 μL of different drugs were added to the 96-well plate sequentially from bottom to top to ensure that the final drug concentrations were 10^−5 M, 10^−6 M, 10^−7 M, 10^−8 M, 10^−9 M, and 0 M, with two replicates per treatment. Next, 30 μL of [3H]-Methylspiperone was added to each well of the 96-well plate. The plate was incubated at room temperature in the dark for 2 hours. Detection was conducted. The machine readout value reflected the amount of [3H]-Methylspiperone bound on the membrane, and after further data processing, the affinity Ki values of different compounds for the dopamine D2 receptors were obtained.

T1 sequence (P14416 whole entry): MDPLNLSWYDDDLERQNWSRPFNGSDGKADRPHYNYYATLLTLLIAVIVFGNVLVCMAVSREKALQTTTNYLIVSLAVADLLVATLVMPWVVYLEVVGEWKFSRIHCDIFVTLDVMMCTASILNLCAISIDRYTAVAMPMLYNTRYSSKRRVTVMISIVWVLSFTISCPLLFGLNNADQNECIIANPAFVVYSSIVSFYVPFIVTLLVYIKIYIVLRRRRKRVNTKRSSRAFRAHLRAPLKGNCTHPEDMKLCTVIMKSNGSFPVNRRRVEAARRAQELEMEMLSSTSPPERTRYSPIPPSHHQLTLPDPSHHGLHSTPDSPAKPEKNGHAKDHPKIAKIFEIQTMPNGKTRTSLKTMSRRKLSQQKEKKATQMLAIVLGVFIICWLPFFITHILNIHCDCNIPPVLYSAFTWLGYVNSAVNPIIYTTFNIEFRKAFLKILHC

The term Emax denotes the greatest response seen or fitted, relative to the assay's reference. For orientation: pEC50 means the EC50 on a negative log10 scale, so that one unit is a factor of ten. By pKi is commonly meant the negative decadic logarithm of the Ki, by convention in mol/L. For `CC(C)Oc1cccc2c3c(oc12)CN(CC[C@H]1CC[C@H](NC(=O)N(C)C)CC1)CC3` [I-A19, 3-(trans-4-(2-(8-isopropoxy-3,4-dihydrobenzofuro[2,3-c]pyridin-2(1H)-yl)ethyl)cyclohexyl)-1,1-dimethylurea], at dopamine D2 receptors [1], the EC50 was 10.7 nM, the Emax worked out at 40% and the pEC50 was 7.98. At dopamine D2 receptors [2], the Emax stood at 21% and the pEC50 is 8.08. In addition, at dopamine D2 receptors [3], the “Affinity pKi ± SEM” value is “(6.03 ± 0.07)” and the pKi was 6.03.

Regarding `COc1cccc2c1nc1n2CCN(CC[C@H]2CC[C@H](NC(=O)N(C)C)CC2)C1` [I-D6, 3-(trans-4-(2-(9-methoxy-3,4-dihydrobenzo[4,5]imidazo[1,2-a]pyrazin-2(1H)-yl)ethyl)cyclohexyl)-1,1-dimethylurea], at dopamine D2 receptors [3], the pKi is 7.77 and the Ki is 12.9 nM.

In the case of `COc1cccc2c3c(oc12)CN(CCCOc1ccc2ccc(=O)[nH]c2c1)CC3` [I-A8, 7-(3-(8-methoxy-3,4-dihydrobenzofuro[2,3-c]pyridin-2(1H)-yl)propoxy)quinolin-2(1H)-one], at dopamine D2 receptors [1], the Emax is 68% and the pEC50 is 9.82. At dopamine D2 receptors [2], the Emax came out at 103% and the pEC50 is 7.28. In addition, at dopamine D2 receptors [3], the “Affinity pKi ± SEM” value is reported as “(6.82 ± 0.16)” and the pKi is 6.83.

Take `COc1cccc2c3c(oc12)CN(CCNC(=O)C1CCOCC1)CC3` [I-A14, N-(2-(8-methoxy-3,4-dihydrobenzofuro[2,3-c]pyridin-2(1H)-yl)ethyl)tetrahydro-2H-pyran-4-carboxamide]: at dopamine D2 receptors [3], the pKi was 6.12.

Take `COc1cccc2c3c([nH]c12)CN(CCCCOc1ccc2ccc(=O)[nH]c2c1)CC3` [I-B1, 7-(4-(8-methoxy-1,3,4,9-tetrahydro-2H-pyrido[3,4-b]indol-2-yl)butoxy)quinolin-2(1H)-one]: at dopamine D2 receptors [1], the EC50 is 102 nM, the Emax came out at 22% and the pEC50 was 6.63. For the same molecule, at dopamine D2 receptors [2], the EC50 was 12 nM, the Emax was 50% and the pEC50 was 7.88. Also, on dopamine D2 receptors [3], the pKi is 6.44 and the Ki was 83.2 nM.

`COc1cccc2c3c(oc12)CN(CC[C@H]1CC[C@H](NS(C)(=O)=O)CC1)CC3` [I-A13, N-(trans-4-(2-(8-methoxy-3,4-dihydrobenzofuro[2,3-c]pyridin-2(1H)-yl)ethyl)cyclohexyl)methanesulfonamide]: on dopamine D2 receptors [1], the EC50 is 38.9 nM, the Emax turned out to be 53% and the pEC50 is 7.33. Further, at dopamine D2 receptors [2], the EC50 was 0.832 nM, the Emax was 81% and the pEC50 is 8.34. Further, at dopamine D2 receptors [3], the pKi was 5.76 and the Ki is 1580 nM.

On to `COc1cccc2c3c([nH]c12)CN(CCCOc1ccc2ccc(=O)[nH]c2c1)CC3` [I-B3, 7-(3-(8-methoxy-1,3,4,9-tetrahydro-2H-pyrido[3,4-b]indol-2-yl)propoxy)quinolin-2(1H)-one], for which, at dopamine D2 receptors [1], the EC50 was 13.2 nM, the Emax stood at 41% and the pEC50 is 7.89. On dopamine D2 receptors [2], the Emax was 90% and the pEC50 is 9.33. At dopamine D2 receptors [3], the pKi was 6.55 and the Ki is 288 nM.

For `COc1cccc2c1cc1n2CCN(C/C=C/COc2ccc3ccc(=O)[nH]c3c2)C1` [I-C5, (E)-7-((4-(9-methoxy-3,4-dihydropyrazino[1,2-a]indol-2(1H)-yl)but-2-en-1-yl)oxy)quinolin-2(1H)-one], on dopamine D2 receptors [1], the EC50 was 97.7 nM, the Emax was 64% and the pEC50 is 7.02. At dopamine D2 receptors [2], the Emax came to 127% and the pEC50 was 7.68. In addition, on dopamine D2 receptors [3], the “Affinity pKi ± SEM” value is recorded as “(6.36 ± 0.28)” and the pKi was 6.36.

`COc1cccc2c3c(oc12)CN(C/C=C/COc1ccc2ccc(=O)[nH]c2c1)CC3` [I-A10, (E)-7-((4-(8-methoxy-3,4-dihydrobenzofuro[2,3-c]pyridin-2(1H)-yl)but-2-en-1-yl)oxy)quinolin-2(1H)-one]: at dopamine D2 receptors [1], the “Gαi1 BRET pEC50 ± SEM” value is “(7.21 ± 0.12)”, the Emax worked out at 27% and the pEC50 was 7.21. For the same molecule, on dopamine D2 receptors [2], the Emax turned out to be 107% and the pEC50 was 8.34. Also, at dopamine D2 receptors [3], the “Affinity pKi ± SEM” value is recorded as “(6.85 ± 0.19)” and the pKi was 6.86.

Consider `CCOc1cccc2c3c([nH]c12)CN(CCCCOc1ccc2ccc(=O)[nH]c2c1)CC3` [I-B2, 7-(4-(8-ethoxy-1,3,4,9-tetrahydro-2H-pyrido[3,4-b]indol-2-yl)butoxy)quinolin-2(1H)-one], for which, at dopamine D2 receptors [3], the pKi is 7.10 and the Ki is 77.6 nM.

On to `COc1cccc2c3c([nH]c12)CN(CCC1CC(NC(=O)N(C)C)C1)CC3` (stereo not shown) [I-B10, 3-(3-(2-(8-methoxy-1,3,4,9-tetrahydro-2H-pyrido[3,4-b]indol-2-yl)ethyl)cyclobutyl)-1,1-dimethylurea], for which, on dopamine D2 receptors [3], the “Affinity pKi ± SEM” value is “(7.63 ± 0.57)” and the pKi is 7.63.

Consider `CCOc1cccc2c3c([nH]c12)CN(CCCOc1ccc2c(c1)NC(=O)CC2)CC3` [I-B6, 7-(3-(8-ethoxy-1,3,4,9-tetrahydro-2H-pyrido[3,4-b]indol-2-yl)propoxy)-3,4-dihydroquinolin-2(1H)-one], for which, on dopamine D2 receptors [3], the “Affinity pKi ± SEM” value is on record as “(6.58 ± 0.41)” and the pKi was 6.58.

As to `CCOc1cccc2c3c([nH]c12)CN(CCCOc1ccc2ccc(=O)[nH]c2c1)CC3` [I-B4, 7-(3-(8-ethoxy-1,3,4,9-tetrahydro-2H-pyrido[3,4-b]indol-2-yl)propoxy)quinolin-2(1H)-one], at dopamine D2 receptors [3], the “Affinity pKi ± SEM” value was “(6.13 ± 0.26)” and the pKi was 6.14.
